Source: US20110217309A1, “BIOLOGICAL MARKERS PREDICTIVE OF ANTI-CANCER RESPONSE TO INSULIN-LIKE GROWTH FACTOR-1 RECEPTOR KINASE INHIBITORS” (priority 2010, published 2011)

Legend:
[1] = tested on: HCC70; test: Cell Titer Glo proliferation assay, 88 cell line panel; type: cell-based, human; settings: HCC70 breast cancer, PTEN mutant, 72 hours
Description: (§1) Proliferation Assay. […] The basis of the assay is a luminescent quantitation of ATP present in a cell culture plate well. In essence, the greater the number of viable cells in the well, the greater the level of ATP present. The assay utilizes a substrate that binds ATP to produce a luminescent signal, which can be read on a luminometer. Unless otherwise noted, the manufacturer's instructions were followed exactly. Briefly, on Day 1, cells were plated in 120 μl of 10% serum-containing growth media at a density of 4000 cells/well in a white polystyrene 96 well assay plate. […] After 72 h incubation with the inhibitor, the cells were assayed. Results were calculated as a fraction of the DMSO controlled cells.
(§2) This included cell lines representing ovarian cancer (A2780 and EFO-27), SCCHN (HSC-4), SCLC (NCI-H446), CRC (KM12), lymphoma (MC116), breast cancer (BT549 and HCC70), and prostate cancer (PC3).

[2] = tested on: HSC-4; test: as above; type: cell-based, human; settings: HSC-4 SCCHN, PTEN mutant, 72 hours
Description: as §1, §2

[3] = tested on: OVCAR4; test: Cell Titer Glo proliferation assay; type: cell-based, human; settings: OVCAR4, wild type KRAS
Source text: (§3) Cell Lines and Culture. Human cancer cell lines, were obtained from American Type Culture Collection (ATCC, Manassas, Va.), or the following additional indicated sources, and cultured in media as described. Tumor types are also indicated: H295R (adrenocortical carcinoma; ATCC), NCI-[…], NCI-[…], SW1573 (NSCLC; ATCC), […], BxPC3 (pancreatic; ATCC), OVCAR5 (ovarian; NCI), MDAH-2774 (ovarian; ATCC), Igrov1 (ovarian; NCI), GEO (colon; Roswell Park Cancer Institute (RPCC)), HT-29 (colon; ATCC), RKO (colon; ATCC), […], 8226 (myeloma; ATCC), H929 (myeloma; ATCC), U266 (myeloma; ATCC), SKES1 (Ewings sarcoma; ATCC), RDES (Ewings sarcoma; ATCC), RD (rhabdomyosarcoma; ATCC), DU4475 (breast; ATCC), SKNAS (neuroblastoma; ATCC), 2650 (nasal SCC; ATCC), OVCAR4 (ovarian; NCI), A673 (Ewings sarcoma; ATCC), BT474 (breast; ATCC), 1386 (oral SCC; MSKCC, NY), 1186 (SCCHN; MSKCC, NY), Colo205 (colon; ATCC), HCT-15 (colon; ATCC), Fadu (oral SCC; ATCC), SKBR3 (breast; ATCC), 1483 (HNSCC; MSKCC, NY), HSC-2 (HNSCC; RIKEN BioResource Center, Tsukuba, Ibaraki, 305-0074, Japan), SKOV-3 (ovarian; ATCC), OVCAR-3 (ovarian; NCI), OVCAR-8 (ovarian; NCI), CaOV3 (ovarian; ATCC). […] The cells were routinely screened for the presence of mycoplasma (MycoAlert, Cambrex Bio Science, Baltimore, Md.). For growth inhibition assays, cells were plated and allowed to proliferate for 24 hours. […] Cell viability was assayed using the Cell Titer-Glo reagent (Promega Corp., Madison, Wis.). Proliferation Assay. […] The basis of the assay is a luminescent quantitation of ATP present in a cell culture plate well. In essence, the greater the number of viable cells in the well, the greater the level of ATP present. The assay utilizes a substrate that binds ATP to produce a luminescent signal, which can be read on a luminometer. Unless otherwise noted, the manufacturer's instructions were followed exactly. Briefly, on Day 1, cells were plated in 120 μl of 10% serum-containing growth media at a density of 4000 cells/well in a white polystyrene 96 well assay plate. […] After 72 h incubation with the inhibitor, the cells were assayed. Results were calculated as a fraction of the DMSO controlled cells.

[4] = tested on: OVK18; test: Cell Titer Glo proliferation assay; type: cell-based, human; settings: OVK18, wild type KRAS
Source text: as §3

[5] = tested on: T47D; test: Cell Titer Glo proliferation assay; type: cell-based, human; settings: T47D breast cancer, PIK3CA mutant
Source text: as §3

[6] = tested on: BT20; test: Cell Titer Glo proliferation assay; type: cell-based, human; settings: BT20 breast cancer, PIK3CA mutant
Source text: as §3

[7] = tested on: HCC1954; test: Cell Titer Glo proliferation assay; type: cell-based, human; settings: HCC1954 breast cancer, PIK3CA mutant
Source text: as §3

[8] = tested on: LS174T; test: Cell Titer Glo proliferation assay; type: cell-based, human; settings: LS174T colon cancer, PIK3CA mutant
Source text: as §3

[9] = tested on: MCF7; test: Cell Titer Glo proliferation assay; type: cell-based, human; settings: MCF7 breast cancer, PIK3CA mutant
Source text: as §3

[10] = tested on: H295R tumors; test: Tumor xenograft study; settings: treatment in vivo for 10-14 days
[11] = tested on: H460 tumors; test: Tumor xenograft study; settings: treatment in vivo for 10-14 days
[12] = tested on: BxPC3 tumors; test: Tumor xenograft study; settings: treatment in vivo for 10-14 days

C[C@]1(O)C[C@@H](c2nc(-c3ccc4ccc(-c5ccccc5)nc4c3)c3c(N)nccn32)C1 [OSI-906, cis-3-[8-amino-1-(2-phenyl-quinolin-7-yl)-imidazo[1,5-a]pyrazin-3-yl]-1-methyl-cyclobutanol]
sensitivity to OSI-906 [1]: insensitive (insensitive (EC50>10 μM)) | sensitivity to OSI-906 [2]: insensitive (insensitive (EC50>10 μM)) | sensitivity to OSI-906 [3]: insensitive (insensitive (EC50>10 μM)) | sensitivity to OSI-906 [4]: insensitive (insensitive (EC50>10 μM)) | sensitivity to OSI-906 [5]: insensitive (insensitive (EC50>10 μM)) | sensitivity to OSI-906 [6]: insensitive (insensitive (EC50>10 μM)) | sensitivity to OSI-906 [7]: insensitive (insensitive (EC50>10 μM)) | sensitivity to OSI-906 [8]: sensitive (sensitive (EC50<1 μM)) | sensitivity to OSI-906 [9]: sensitive (sensitive (EC50<1 μM)) | % TGI (tumor growth inhibition) [10]: 85% | % TGI (tumor growth inhibition) [11]: < 30% | % TGI (tumor growth inhibition) [12]: 56%
